{
  "source": "patent US20260365647A1",
  "about": "“AKT1 MODULATORS” (Alterome Therapeutics, Inc., priority 2022, published 2026)",
  "data": [
    {"biological_target": "T1, AKT1-E17K (Homo sapiens, UniProt P31749, E17K)", "T1 construct": "host or cells: HEK-293 (ATCC CRL-1573)", "T1 sequence (P31749 whole entry E17K, the tested form may be a part)": "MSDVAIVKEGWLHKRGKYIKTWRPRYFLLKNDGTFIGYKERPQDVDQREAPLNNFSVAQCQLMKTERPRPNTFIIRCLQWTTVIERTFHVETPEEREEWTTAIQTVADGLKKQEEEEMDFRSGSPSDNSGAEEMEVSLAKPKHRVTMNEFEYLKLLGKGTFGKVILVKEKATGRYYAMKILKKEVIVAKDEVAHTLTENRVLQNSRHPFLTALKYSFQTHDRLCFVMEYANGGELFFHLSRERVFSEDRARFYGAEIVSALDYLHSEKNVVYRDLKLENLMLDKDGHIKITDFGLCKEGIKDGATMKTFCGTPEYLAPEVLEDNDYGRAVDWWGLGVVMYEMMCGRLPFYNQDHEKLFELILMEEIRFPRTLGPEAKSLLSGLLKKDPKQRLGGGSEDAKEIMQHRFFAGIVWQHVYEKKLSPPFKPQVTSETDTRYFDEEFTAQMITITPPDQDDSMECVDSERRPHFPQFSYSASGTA", "experiment": "NanoBRET Target Engagement (TE) Assay", "format": "cell-based", "how_it_was_run": "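Live cells transiently expressing NanoLuc-AKT1 E17K fusion, incubated 2 h with tracer and compound before substrate plus extracellular NanoLuc inhibitor were added. BRET read at 450/600 nm; EC50 from variable-slope sigmoidal fit of tracer displacement.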", "units": {"IC50": "nM"}, "values": [
      {"compound": "Nc1ncccc1-c1nc2ccc(-c3ccc(Cl)cc3)nc2n1-c1ccc(CN2CCN(c3ccc(O)c(C=O)c3)CC2)cc1", "note": "[Example 149, 5-(4-(4-(2-(2-aminopyridin-3-yl)-5-(4-chlorophenyl)-3H-imidazo[4,5-b]pyridin-3-yl)benzyl)piperazin-1-yl)-2-hydroxybenzaldehyde]", "IC50": "> 600"},
      {"compound": "Nc1ncccc1-c1nc2ccc(-c3ccccc3)nc2n1-c1ccc(CN2C[C@@H]3CN(C(=O)c4ccc(O)c(C=O)c4)C[C@@H]3C2)cc1", "note": "[Example 131, 5-((3aR,6aS)-5-(4-(2-(2-Aminopyridin-3-yl)-5-phenyl-3H-imidazo[4,5-b]pyridin-3-yl)benzyl)octahydropyrrolo[3,4-c]pyrrole-2-carbonyl)-2-hydroxybenzaldehyde]", "IC50": "60 to 600"},
      {"compound": "Nc1ncccc1-c1nc2ccc(-c3cccc(Cl)c3)nc2n1-c1ccc(CN2CCN(C(=O)c3ccc(C=O)c(O)c3)CC2)cc1", "note": "[Example 43, 4-(4-(4-(2-(2-Aminopyridin-3-yl)-5-(3-chlorophenyl)-3H-imidazo[4,5-b]pyridin-3-yl)benzyl)piperazine-1-carbonyl)-2-hydroxybenzaldehyde]", "IC50": "60 to 600"},
      {"compound": "Nc1ncccc1-c1nc2ccc(-c3ccccc3)nc2n1-c1ccc(CN2CCCCC(NC(=O)c3ccc(O)c(C=O)c3)C2)cc1", "note": "(stereo not drawn) [Example 117, N-(1-(4-(2-(2-Aminopyridin-3-yl)-5-phenyl-3H-imidazo[4,5-b]pyridin-3-yl)benzyl)azepan-3-yl)-3-formyl-4-hydroxybenzamide]", "IC50": "> 600"},
      {"compound": "Cn1cc(-c2ccc3nc(-c4cccnc4N)n(-c4ccc(CN5CCN(C(=O)c6ccc(O)c(C=O)c6)CC5)cc4)c3n2)ccc1=O", "note": "[Example 44, 5-(4-(4-(2-(2-aminopyridin-3-yl)-5-(1-methyl-6-oxo-1,6-dihydropyridin-3-yl)-3H-imidazo[4,5-b]pyridin-3-yl)benzyl)piperazine-1-carbonyl)-2-hydroxybenzaldehyde]", "IC50": "> 600"},
      {"compound": "Nc1ncccc1-c1nc2ccc(-c3ccccc3)nc2n1-c1ccc(CN2CCCC(NC(=O)c3ccc(C=O)c(O)c3)CC2)cc1", "note": "(stereo not drawn) [Example 116, N-(1-(4-(2-(2-aminopyridin-3-yl)-5-phenyl-3H-imidazo[4,5-b]pyridin-3-yl)benzyl)azepan-4-yl)-4-formyl-3-hydroxybenzamide]", "IC50": "60 to 600"},
      {"compound": "Nc1ncccc1-c1nc2ccc(-c3ccccc3)nc2n1-c1ccc(CN2C[C@@H]3CN(c4ccc(C=O)c(O)c4)C[C@@H]3C2)cc1", "note": "[Example 133, 4-((3aR,6aS)-5-(4-(2-(2-Aminopyridin-3-yl)-5-phenyl-3H-imidazo[4,5-b]pyridin-3-yl)benzyl)hexahydropyrrolo[3,4-c]pyrrol-2(1H)-yl)-2-hydroxybenzaldehyde]", "IC50": "60 to 600"},
      {"compound": "Nc1ncccc1-c1nc2ccc(-c3ccccc3)nc2n1-c1ccc(CN2CC3(C2)CN(c2ccc(C=O)c(O)c2)C3)cc1", "note": "[Example 89, 4-(6-(4-(2-(2-aminopyridin-3-yl)-5-phenyl-3H-imidazo[4,5-b]pyridin-3-yl)benzyl)-2,6-diazaspiro[3.3]heptan-2-yl)-2-hydroxybenzaldehyde]", "IC50": "15 to 60"},
      {"compound": "Nc1ncccc1-c1nc2ccc(-c3ccccc3)nc2n1-c1ccc(CN2CC[C@]3(CCN(C(=O)c4ccc(O)c(C=O)c4)C3)C2)cc1", "note": "[Example 101, (S)-5-(7-(4-(2-(2-Aminopyridin-3-yl)-5-phenyl-3H-imidazo[4,5-b]pyridin-3-yl)benzyl)-2,7-diazaspiro[4.4]nonane-2-carbonyl)-2-hydroxybenzaldehyde]", "IC50": "60 to 600"},
      {"compound": "Nc1ncccc1-c1nc2ccc(-c3ccccc3)nc2n1-c1ccc(CN2CC3(CCN(C(=O)c4ccc(O)c(C=O)c4)C3)C2)cc1", "note": "[Example 92, 5-(2-(4-(2-(2-Aminopyridin-3-yl)-5-phenyl-3H-imidazo[4,5-b]pyridin-3-yl)benzyl)-2,6-diazaspiro[3.4]octane-6-carbonyl)-2-hydroxybenzaldehyde]", "IC50": "15 to 60"},
      {"compound": "Nc1ncccc1-c1nc2ccc(-c3cccc(F)c3)nc2n1-c1ccc(CN2CCN(C(=O)c3ccc(O)c(C=O)c3)CC2)cc1", "note": "[Example 40, 5-(4-(4-(2-(2-Aminopyridin-3-yl)-5-(3-fluorophenyl)-3H-imidazo[4,5-b]pyridin-3-yl)benzyl)piperazine-1-carbonyl)-2-hydroxybenzaldehyde]", "IC50": "60 to 600"},
      {"compound": "Nc1ncccc1-c1nc2ccc(-c3cccc(F)c3)nc2n1-c1ccc(CN2CCN(C(=O)c3ccc(C=O)c(O)c3)CC2)cc1", "note": "[Example 41, 4-(4-(4-(2-(2-Aminopyridin-3-yl)-5-(3-fluorophenyl)-3H-imidazo[4,5-b]pyridin-3-yl)benzyl)piperazine-1-carbonyl)-2-hydroxybenzaldehyde]", "IC50": "60 to 600"},
      {"compound": "Nc1ncccc1-c1nc2ccc(-c3ccccc3)nc2n1-c1ccc(CN2CC3(CCN(c4ccc(C=O)c(O)c4)C3)C2)cc1", "note": "[Example 94, 4-(2-(4-(2-(2-Aminopyridin-3-yl)-5-phenyl-3H-imidazo[4,5-b]pyridin-3-yl)benzyl)-2,6-diazaspiro[3.4]octan-6-yl)-2-hydroxybenzaldehyde]", "IC50": "15 to 60"},
      {"compound": "Nc1ncccc1-c1nc2ccc(-c3ccccc3)nc2n1-c1ccc(CN2CC[C@]3(CCN(C(=O)c4ccc(C=O)c(O)c4)C3)C2)cc1", "note": "[Example 102, (S)-4-(7-(4-(2-(2-Aminopyridin-3-yl)-5-phenyl-3H-imidazo[4,5-b]pyridin-3-yl)benzyl)-2,7-diazaspiro[4.4]nonane-2-carbonyl)-2-hydroxybenzaldehyde]", "IC50": "60 to 600"},
      {"compound": "Nc1ncccc1-c1nc2ccc(-c3ccccc3)nc2n1-c1ccc(CN2CCC3(CC2)CCN(C(=O)c2ccc(O)c(C=O)c2)CC3)cc1", "note": "[Example 77, 5-(9-(4-(2-(2-Aminopyridin-3-yl)-5-phenyl-3H-imidazo[4,5-b]pyridin-3-yl)benzyl)-3,9-diazaspiro[5.5]undecane-3-carbonyl)-2-hydroxybenzaldehyde]", "IC50": "60 to 600"},
      {"compound": "Nc1ncccc1-c1nc2ccc(-c3ccccc3)nc2n1-c1ccc(CN2CCN(c3ccc(O)c(C=O)c3)CC2)cc1", "note": "[Example 10, 5-(4-(4-(2-(2-aminopyridin-3-yl)-5-phenyl-3H-imidazo[4,5-b]pyridin-3-yl)benzyl)piperazin-1-yl)-2-hydroxybenzaldehyde]", "IC50": "60 to 600"},
      {"compound": "Nc1ncccc1-c1nc2ccc(-c3ccccc3)nc2n1-c1ccc(CN2CCN(C(=O)c3ccc(C=O)c(O)c3)CC2)cc1", "note": "[Example 6, 4-(4-(4-(2-(2-Aminopyridin-3-yl)-5-phenyl-3H-imidazo[4,5-b]pyridin-3-yl)benzyl)piperazine-1-carbonyl)-2-hydroxybenzaldehyde]", "IC50": "60 to 600"},
      {"compound": "N#Cc1ccccc1-c1ccc2nc(-c3cccnc3N)n(-c3ccc(CN4CCN(C(=O)c5ccc(O)c(C=O)c5)CC4)cc3)c2n1", "note": "[Example 36, 2-(2-(2-aminopyridin-3-yl)-3-(4-((4-(3-formyl-4-hydroxybenzoyl)piperazin-1-yl)methyl)phenyl)-3H-imidazo[4,5-b]pyridin-5-yl)benzonitrile]", "IC50": "> 600"},
      {"compound": "Nc1ncccc1-c1nc2ccc(-c3ccccc3)nc2n1-c1ccc(CN2CC[C@@]3(CCN(C(=O)c4ccc(O)c(C=O)c4)C3)C2)cc1", "note": "[Example 98, (R)-5-(7-(4-(2-(2-aminopyridin-3-yl)-5-phenyl-3H-imidazo[4,5-b]pyridin-3-yl)benzyl)-2,7-diazaspiro[4.4]nonane-2-carbonyl)-2-hydroxybenzaldehyde]", "IC50": "15 to 60"},
      {"compound": "Nc1ncccc1-c1nc2ccc(-c3ccccc3)nc2n1-c1ccc(CN2CCC(NC(=O)c3cccc(C=O)c3O)CC2)cc1", "note": "[Example 49, N-(1-(4-(2-(2-aminopyridin-3-yl)-5-phenyl-3H-imidazo[4,5-b]pyridin-3-yl)benzyl)piperidin-4-yl)-3-formyl-2-hydroxybenzamide]", "IC50": "15 to 60"},
      {"compound": "Nc1ncccc1-c1nc2ccc(-c3ccc(Cl)cc3)nc2n1-c1ccc(CN2CCN(C(=O)c3ccc(O)c(C=O)c3)CC2)cc1", "note": "[Example 147, 5-(4-(4-(2-(2-aminopyridin-3-yl)-5-(4-chlorophenyl)-3H-imidazo[4,5-b]pyridin-3-yl)benzyl)piperazine-1-carbonyl)-2-hydroxybenzaldehyde]", "IC50": "> 600"},
      {"compound": "Nc1ncccc1-c1nc2cccnc2n1-c1ccc(CNC(=O)c2ccc(O)c(C=O)c2)cc1", "note": "[Example 2, N-(4-(2-(2-Aminopyridin-3-yl)-3H-imidazo[4,5-b]pyridin-3-yl)benzyl)-3-formyl-4-hydroxybenzamide]", "IC50": "60 to 600"},
      {"compound": "C[C@@H]1CN(Cc2ccc(-n3c(-c4cccnc4N)nc4ccc(-c5ccccc5)nc43)cc2)CCN1c1ccc(C=O)c(O)c1", "note": "[Example 104, (R)-4-(4-(4-(2-(2-Aminopyridin-3-yl)-5-phenyl-3H-imidazo[4,5-b]pyridin-3-yl)benzyl)-2-methylpiperazin-1-yl)-2-hydroxybenzaldehyde]", "IC50": "60 to 600"},
      {"compound": "C[C@H](NC(=O)c1ccc(O)c(C=O)c1)c1ccc(-n2c(-c3cccnc3N)nc3ccc(-c4ccccc4)nc32)cc1", "note": "[Example 140, (S)—N-(1-(4-(2-(2-Aminopyridin-3-yl)-5-phenyl-3H-imidazo[4,5-b]pyridin-3-yl)phenyl)ethyl)-3-formyl-4-hydroxybenzamide]", "IC50": "15 to 60"},
      {"compound": "Nc1ncccc1-c1nc2ccc(-c3ccccc3)nc2n1-c1ccc(CN2CCC(Oc3ccc(O)c(C=O)c3)CC2)cc1", "note": "[Example 130, 5-((1-(4-(2-(2-Aminopyridin-3-yl)-5-phenyl-3H-imidazo[4,5-b]pyridin-3-yl)benzyl)piperidin-4-yl)oxy)-2-hydroxybenzaldehyde]", "IC50": "60 to 600"},
      {"compound": "Nc1ncccc1-c1nc2ccc(-c3ccccc3)nc2n1-c1ccc(CN2CCC(Nc3ccc(O)c(C=O)c3)CC2)cc1", "note": "[Example 48, 5-((1-(4-(2-(2-Aminopyridin-3-yl)-5-phenyl-3H-imidazo[4,5-b]pyridin-3-yl)benzyl)piperidin-4-yl)amino)-2-hydroxybenzaldehyde]", "IC50": "60 to 600"},
      {"compound": "Nc1ncccc1-c1nc2ccc(-c3ccccc3)nc2n1-c1ccc(CN2C[C@H]3CN(C(=O)c4ccc(C=O)c(O)c4)C[C@@H]3C2)cc1", "note": "[Example 136, 4-((3aS,6aS)-5-(4-(2-(2-Aminopyridin-3-yl)-5-phenyl-3H-imidazo[4,5-b]pyridin-3-yl)benzyl)octahydropyrrolo[3,4-c]pyrrole-2-carbonyl)-2-hydroxybenzaldehyde]", "IC50": "60 to 600"}
    ]}
  ]
}
